Data taken from article PMC7957578, “N-(1,3,4-Oxadiazol-2-yl)Benzamides as Antibacterial Agents against Neisseria gonorrhoeae” (International Journal of Molecular Sciences, 2021).
Converted amounts (≈) assume the structure as drawn. Read-outs that look alike come from different tables or passages of the source.

Assays:
[1] = test system: E. coli JW55031 (TolC Mutant); assay: MIC/MBC (CLSI broth microdilution) against E. coli TolC mutant; type: cell-based; settings: Escherichia coli
Protocol: (§1) The minimum inhibitory concentrations (MICs) of the tested compounds and control drugs, linezolid, vancomycin, and gentamicin, were determined using the broth microdilution method according to the guidelines outlined by the Clinical and Laboratory Standards Institute (CLSI) against clinically relevant bacterial (Staphylococcus aureus, MRSA, Escherichia coli, Enterococcus faecalis and Enterococcus faecium strains. S. aureus, MRSA, E. coli, Enterococcus faecalis and Enterococcus faecium were grown aerobically overnight on tryptone soy agar (TSA) plates at 37° C. Afterwards, a bacterial solution equivalent to 0.5 McFarland standard was prepared and diluted in cation-adjusted Mueller–Hinton broth (CAMHB) (for S. aureus, MRSA, and E. coli) to achieve a bacterial concentration of about 5 × 10^5 CFU/mL. Enterococcus faecalis and Enterococcus faecium 0.5 McFarland standard solution was diluted in tryptone soy broth (TSB) to achieve a bacterial concentration of about 5 × 10^5 CFU/mL. Compounds and control drugs were added in the first row of 96-well plates and serially diluted with the corresponding media containing bacteria. Plates were then incubated as previously described. […] The minimum bactericidal concentration (MBC) was tested by spotting 4 µL from wells with no growth onto TSA plates. Plates were incubated at 37 ° C for at least 18 h before recording the MBC. The MBC was categorized as the lowest concentration that reduced bacterial growth by 99.9% [45, 46, 47].

[2] = test system: E. coli BW25113 (wild-type strain); assay: MIC/MBC (CLSI broth microdilution) against E. coli BW25113 wild type; type: cell-based, Escherichia coli; settings: E. coli BW25113 wild-type strain; for MBC: read-out: MBC
Protocol: as §1

S. aureus ATCC 25923 = assay: MIC/MBC (CLSI broth microdilution) against S. aureus ATCC 25923; type: cell-based; settings: Staphylococcus aureus, ATCC25923, S. aureus ATCC 25923
Protocol: as §1

VRE. faecalisATCC 51575 = assay: MIC/MBC (CLSI broth microdilution) against VRE faecalis ATCC 51575; type: cell-based; settings: Enterococcus, VRE faecalis ATCC 51575
Protocol: as §1

[3] = test system: tested bacterial strains (Table 3); assay: MBC versus MIC against the panel of Gram-positive and Gram-negative pathogens; type: cell-based; settings: MBCs more than three-fold higher than MICs, strains of Table 3
Protocol: While the focus of these new N-(1,3,4-oxadiazol-2-yl)benzamides is towards N. gonorrhoeae, we proceeded to test their activity against other Gram-positive and Gram-negative pathogens. Intriguingly, HSGN-235, HSGN-237, and HSGN-238 had potent activity against the tested Gram-positive bacterial pathogens. For instance, all three compounds had potent activity against the staphylococcal strains, with MICs ranging from 0.25 to 1 µg/mL (Table 3). Furthermore, HSGN-235, HSGN-237, and HSGN-238 maintained potent activity against clinically relevant Gram-positive bacterial pathogens such as vancomycin-resistant enterococci (VRE) and Listeria monocytogenes (Table 3). Additionally, we moved to test if HSGN-235, HSGN-237, and HSGN-238 were active against other Gram-negative bacterial pathogens. […] This lack of activity against Gram-negative bacteria appears to be due to HSGN-235, HSGN-237, and HSGN-238 being a substrate for efflux.
The minimum inhibitory concentrations (MICs) of the tested compounds and control drugs, linezolid, vancomycin, and gentamicin, were determined using the broth microdilution method according to the guidelines outlined by the Clinical and Laboratory Standards Institute (CLSI) against clinically relevant bacterial (Staphylococcus aureus, MRSA, Escherichia coli, Enterococcus faecalis and Enterococcus faecium strains. S. aureus, MRSA, E. coli, Enterococcus faecalis and Enterococcus faecium were grown aerobically overnight on tryptone soy agar (TSA) plates at 37° C. Afterwards, a bacterial solution equivalent to 0.5 McFarland standard was prepared and diluted in cation-adjusted Mueller–Hinton broth (CAMHB) (for S. aureus, MRSA, and E. coli) to achieve a bacterial concentration of about 5 × 10^5 CFU/mL. Enterococcus faecalis and Enterococcus faecium 0.5 McFarland standard solution was diluted in tryptone soy broth (TSB) to achieve a bacterial concentration of about 5 × 10^5 CFU/mL. Compounds and control drugs were added in the first row of 96-well plates and serially diluted with the corresponding media containing bacteria. […]

E. faecalis ATCC 29212 = assay: MIC/MBC (CLSI broth microdilution) against E. faecalis ATCC 29212; type: cell-based; settings: Enterococcus faecalis, ATCC29212, E. faecalis ATCC 29212
Protocol: as §1

N. gonorrhoeae 197 = assay: MIC/MBC against N. gonorrhoeae clinical isolate 197; type: cell-based; settings: Neisseria gonorrhoeae
Protocol: (§2) Briefly, bacteria were grown overnight on chocolate agar II at 37° C in the presence of 5% CO2. Afterwards, a bacterial suspension equivalent to 1.0 McFarland standard was prepared and diluted in brucella broth supplemented with yeast extract, neopeptone, hematin, pyridoxal, and NAD. Test agents were added in the first row of the 96-well plates and serially diluted along the plates. Plates were then incubated at 37° C in the presence of 5% CO2 for 24 h. […] Plates were then incubated at 37 ° C in the presence of 5% CO2 for 24 h. The MBC was categorized as the lowest concentration that reduced bacterial growth by 99.9% [45, 46, 47].

VRE. faecalis ATCC 51299 = assay: MIC/MBC (CLSI broth microdilution) against VRE faecalis ATCC 51299; type: cell-based; settings: Enterococcus, VRE faecalis ATCC 51299
Protocol: as §1

N. gonorrhoeae 194 = assay: MIC/MBC against N. gonorrhoeae clinical isolate 194; type: cell-based; settings: Neisseria gonorrhoeae
Protocol: as §2

VRE. faecium ATCC 700221 = assay: MIC/MBC (CLSI broth microdilution) against VRE faecium ATCC 700221; type: cell-based; settings: Enterococcus, VRE faecium ATCC 700221
Protocol: as §1

N. gonorrhoeae WHO L = assay: MIC/MBC against N. gonorrhoeae WHO L reference strain; type: cell-based; settings: Neisseria gonorrhoeae
Protocol: as §2

[4] = test system: N. gonorrhoeae strain 181; assay: MIC by broth microdilution against N. gonorrhoeae strain 181; type: cell-based, Neisseria gonorrhoeae; settings: N. gonorrhoeae strain 181
Protocol: as §2

N. gonorrhoeae 200 = assay: MIC/MBC against N. gonorrhoeae clinical isolate 200; type: cell-based; settings: Neisseria gonorrhoeae
Protocol: as §2

N. gonorrhoeae = assay: MIC against N. gonorrhoeae in presence of fetal bovine serum; type: cell-based; settings: Neisseria gonorrhoeae, 24 h
N. gonorrhoeae 166 = assay: MIC/MBC against N. gonorrhoeae clinical isolate 166; type: cell-based; settings: Neisseria gonorrhoeae
Protocol: as §2

MRSA USA300 = assay: MIC/MBC (CLSI broth microdilution) against MRSA USA300; type: cell-based, methicillin-resistant Staphylococcus aureus; settings: Staphylococcus aureus, MRSA USA300
Protocol: as §1

[5] = test system: panel drug-resistant pathogenic N. gonorrhoeae strains; assay: MIC/MBC against a panel of drug-resistant N. gonorrhoeae strains; type: cell-based, Neisseria gonorrhoeae; settings: MBC the same as or one-fold higher than MIC
[6] = test system: L. monocytogenes ATCC 19115; assay: MIC/MBC (CLSI broth microdilution) against L. monocytogenes ATCC 19115; type: cell-based; settings: Listeria monocytogenes, ATCC19115, L. monocytogenes ATCC 19115
N. gonorrhoeae 165 = assay: MIC/MBC against N. gonorrhoeae clinical isolate 165; type: cell-based; settings: Neisseria gonorrhoeae
Protocol: as §2

[7] = Escherichia coli, read-out: MIC

CNC(C)C1CCC(N)C(OC2C(N)CC(N)C(OC3OCC(C)(O)C(NC)C3O)C2O)O1 (centres unmarked) [Gentamicin, gentamicin, reference compound]
MBC [1]: 0.25 µg/mL (≈ 0.523 µM) | MIC [1]: 0.25 µg/mL (≈ 0.523 µM) | MBC ([2]; Escherichia coli): 0.25 µg/mL (≈ 0.523 µM) | MIC [2, 7]: 0.25 µg/mL (≈ 0.523 µM)

O=C(Nc1nnc(-c2ccc(C(F)(F)F)cc2)o1)c1ccc(OC(F)(F)F)c(F)c1 [HSGN-235, 3-Fluoro-4-(trifluoromethoxy)-N-(5-(4-(trifluoromethyl)phenyl)-1,3,4-oxadiazol-2-yl)benzamide]
MBC (S. aureus ATCC 25923; read-out: MBC): > 64 µg/mL | MIC (S. aureus ATCC 25923; read-out: MIC): 1 µg/mL (≈ 2.3 µM) | MBC (VRE. faecalisATCC 51575; read-out: MBC): > 64 µg/mL | MIC (VRE. faecalisATCC 51575; read-out: MIC): 2 µg/mL (≈ 4.6 µM) | type of activity from MBC versus MIC [3]: bacteriostatic agents | MBC (E. faecalis ATCC 29212; read-out: MBC): 32 µg/mL (≈ 73.5 µM) | MIC (E. faecalis ATCC 29212; read-out: MIC): 4 µg/mL (≈ 9.19 µM) | MBC (N. gonorrhoeae 197): 2 µg/mL (≈ 4.6 µM) | MIC (N. gonorrhoeae 197): 1 µg/mL (≈ 2.3 µM) | MBC (VRE. faecalis ATCC 51299; read-out: MBC): 64 µg/mL (≈ 147 µM) | MIC (VRE. faecalis ATCC 51299; read-out: MIC): 1 µg/mL (≈ 2.3 µM) | MBC (N. gonorrhoeae 194): 1 µg/mL (≈ 2.3 µM) | MIC (N. gonorrhoeae 194): 1 µg/mL (≈ 2.3 µM) | MBC (VRE. faecium ATCC 700221; read-out: MBC): 32 µg/mL (≈ 73.5 µM) | MIC (VRE. faecium ATCC 700221; read-out: MIC): 1 µg/mL (≈ 2.3 µM) | MBC (N. gonorrhoeae WHO L): 2 µg/mL (≈ 4.6 µM) | MIC (N. gonorrhoeae WHO L): 1 µg/mL (≈ 2.3 µM) | MIC [4]: moderate activity | MIC ([4]; Neisseria gonorrhoeae, read-out: MIC): 16 µg/mL (≈ 36.8 µM) | MBC [1]: > 64 µg/mL | MIC [1]: 4 µg/mL (≈ 9.19 µM) | MBC (N. gonorrhoeae 200): 2 µg/mL (≈ 4.6 µM) | MIC (N. gonorrhoeae 200): 2 µg/mL (≈ 4.6 µM) | MIC (N. gonorrhoeae; 5% FBS added to the media): 4 µg/mL | MIC (N. gonorrhoeae; 10% FBS added to the media): 8 µg/mL | MBC (N. gonorrhoeae 166): 2 µg/mL (≈ 4.6 µM) | MIC (N. gonorrhoeae 166): 2 µg/mL (≈ 4.6 µM) | MBC (MRSA USA300; read-out: MBC): 64 µg/mL (≈ 147 µM) | MIC (MRSA USA300; read-out: MIC): 0.5 µg/mL (≈ 1.15 µM) | type of activity from MBC versus MIC [5]: bactericidal activity | MBC ([6]; read-out: MBC): 64 µg/mL (≈ 147 µM) | MIC ([6]; read-out: MIC): 1 µg/mL (≈ 2.3 µM) | MIC [2]: >8 µg/mL | MBC ([2]; Escherichia coli): > 8 µg/mL | MIC [2, 7]: > 8 µg/mL | MBC (N. gonorrhoeae 165): 2 µg/mL (≈ 4.6 µM) | MIC (N. gonorrhoeae 165): 2 µg/mL (≈ 4.6 µM)
